For data set [1], the target named is T1, 5-LOX enzyme (human recombinant) (Homo sapiens, UniProt P09917).
T1 construct: purchased Sigma-Aldrich 437996
T1 sequence (P09917 1-674): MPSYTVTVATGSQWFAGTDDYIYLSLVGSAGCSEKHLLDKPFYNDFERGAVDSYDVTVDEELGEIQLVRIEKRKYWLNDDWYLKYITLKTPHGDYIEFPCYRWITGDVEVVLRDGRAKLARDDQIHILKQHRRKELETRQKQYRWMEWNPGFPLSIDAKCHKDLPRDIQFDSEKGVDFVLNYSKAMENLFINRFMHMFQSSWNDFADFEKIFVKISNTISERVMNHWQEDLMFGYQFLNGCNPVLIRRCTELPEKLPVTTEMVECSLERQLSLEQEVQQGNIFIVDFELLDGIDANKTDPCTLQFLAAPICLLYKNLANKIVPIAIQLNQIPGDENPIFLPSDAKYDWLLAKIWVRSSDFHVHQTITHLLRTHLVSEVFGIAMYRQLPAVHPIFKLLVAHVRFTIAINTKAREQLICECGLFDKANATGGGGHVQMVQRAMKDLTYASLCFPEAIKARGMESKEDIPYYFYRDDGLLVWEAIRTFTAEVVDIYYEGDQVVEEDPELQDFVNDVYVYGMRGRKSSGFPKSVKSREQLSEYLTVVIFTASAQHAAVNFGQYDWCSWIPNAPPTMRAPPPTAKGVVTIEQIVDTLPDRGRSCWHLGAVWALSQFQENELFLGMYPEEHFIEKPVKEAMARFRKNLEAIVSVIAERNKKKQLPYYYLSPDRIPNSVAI
Kind of data set: 5-lipoxygenase inhibition assay (5-LOX kit). Conditions: mean ± SE, n = 3. Type of data set: biochemical. An excerpt: The requirements for High-Performance Liquid Chromatography (HPLC) and all compounds tested were of the utmost analytical purity. […] COX-1 and COX-2 (ovine/human), as well as the 5-LOX enzyme (human recombinant) were obtained from Sigma-Aldrich. Dulbecco’s Modified Eagle’s Medium (DMEM), along with penicillin/streptomycin and L-glutamine, were acquired from Gibco BRL, California, USA. Fetal bovine serum (FBS) and 3-(4, 5-dimethylthiazol-2-yl)-2, 5-[…] (MTT) were supplied by Sigma-Aldrich, St. Louis, Missouri, USA.
The methanolic extract of V. odorata flowers and isolated flavonoids were subjected to an in vitro anti-inflammatory assessment by inhibiting two isoenzymes, cyclooxygenase COX-1 and COX-2 (ovine/human), as well as the 5-LOX enzyme (human recombinant).

In data set [2] the test system is human colorectal carcinoma cells (HTC-116). Kind of data set: MTT cytotoxicity assay, HTC-116. The note with it: Homo sapiens, HTC-116, 48 h, read-out: IC50. The class given is cell-based. As for the experimental part:
(§1) The assessment of cytotoxicity for the methanolic extract and isolated flavonoids was performed under controlled and sterile conditions within a Class II A2 Laminar flow biosafety cabinet. The carcinoma cell lines used in this study was obtained from Nawah Scientific Inc. (Cairo, Egypt). The cells were cultured in Dulbecco’s Modified Eagle’s Medium, enriched with 10% heat-inactivated fetal bovine serum, 100 U/ml penicillin, and 100 μg/ml streptomycin sulfate, maintained at […] in humidified incubators with 5% CO2. Upon reaching approximately 80% confluence, the cells were subcultured using a trypsin–EDTA solution. Harvesting occurred during the logarithmic growth phase. The methanolic extract and isolated flavonoids were dissolved in DMSO and stored at − 20 °C. For each experimental trial, the stock solutions were mixed with the culture medium to obtain the required final concentrations.
(§2) The effectiveness of the extract was compared to that of the reference drug, Doxorubicin. The percentage of cell viability was calculated by taking the ratio of the absorbance of the plant extract to that of the control, multiplied by 100. Furthermore, the IC50 value of the plant extract was determined using Sigma Plot software version 11 (Spw.exe) (https://sigmaplot.software.informer.com/11.0/).
In general terms: Formazan colour is commonly taken as a measure of viable cells.

Data set [3] is described as follows: MTT cytotoxicity assay, HTC-116. Type of data set: cell-based, human. Conditions: human, HTC-116 cells (human colorectal carcinoma), 48 h. The protocol:
as §1, §2

The results in this text go back to publication PMC12446468, “Anti-inflammatory and cytotoxic assessment of flavonoids isolated from Viola odorata flowers with computer-guided docking study” (Scientific Reports, 2025).

pIC50: −log10 of the molar value. Converted amounts (≈) assume the structure as drawn.

One may read the pIC50 as −log10 of the IC50, conventionally taken in molar units. Broadly, the IC50 is the concentration that inhibits the measured activity by half. The viability is a per cent measure of how many cells are alive, often set against a control. `COc1c(O)cc2oc(-c3ccccc3)c(OC)c(=O)c2c1O` [5,7-Dihydroxy-3,6-dimethoxyflavone]: in data set [1], the negative logarithm of the IC50 (pIC50) was 5.50. In addition, the concentration for half-maximal inhibition (IC50) in data set [2] was found to be 31.9 mg/L (≈ 101 µM). The compound further displayed a cytotoxicity at 48 h, 6.25 µg/ml in data set [3] (HTC-116, 6.25 ug/ml) of 29.8%. Also, the viability at 48 h, 6.25 µg/ml in data set [3] (HTC-116, 6.25 ug/ml, read-out: % Cell viability) stood at 70.2%. Moreover, the cytotoxicity at 48 h, 12.5 µg/ml in data set [3] (HTC-116, 12.5 ug/ml) stood at 39.2%. Further, the viability at 48 h, 12.5 µg/ml in data set [3] (HTC-116, 12.5 ug/ml, read-out: % Cell viability) was found to be 60.8%. The compound also showed a cytotoxicity at 48 h, 25 µg/ml in data set [3] (HTC-116, 25 ug/ml) of 49.9%. The viability at 48 h, 25 µg/ml in data set [3] (HTC-116, 25 ug/ml, read-out: % Cell viability) turned out to be 50.1%. In data set [3] (HTC-116, 50 ug/ml), this compound registered a cytotoxicity at 48 h, 50 µg/ml of 64.9%. Moreover, the viability at 48 h, 50 µg/ml in data set [3] (HTC-116, 50 ug/ml, read-out: % Cell viability) was determined as 35.1%. The same compound gave a cytotoxicity at 48 h, 100 µg/ml in data set [3] (HTC-116, 100 ug/ml) of 85.9%. In data set [3] (HTC-116, 100 ug/ml, read-out: % Cell viability), the viability at 48 h, 100 µg/ml was found to be 14.1%.
